# Assay results published in ChEMBL document CHEMBL1921696, “Synthesis and biological evaluation of salicylate-based compounds as a novel class of methionine aminopeptidase inhibitors” (Bioorg Med Chem Lett, 2011).
# pIC50: −log10 of the molar value.
# What was measured:
# [1] = Inhibition of Escherichia coli recombinant methionine aminopeptidase expressed in Escherichia coli BL21 (DE3) using MetAMC as substrate in presence of Co(II)
# [2] = Inhibition of Escherichia coli recombinant methionine aminopeptidase expressed in Escherichia coli BL21 (DE3) using MetAMC as substrate in presence of Mn(II)
# [3] = Inhibition of Escherichia coli recombinant methionine aminopeptidase expressed in Escherichia coli BL21 (DE3) using MetAMC as substrate in presence of Fe(II)
# [4] = system: Escherichia coli; assay: Antibacterial activity against Escherichia coli AS19 after 10 hrs by fluorescence assay; format: functional, organism-based; settings: AS19, 10 h
SMILES,pIC50 [1],pIC50 [2],pIC50 [3],pIC50 [4],MIC [4] [µg/mL]
O=C(O)c1ccc(-c2cccs2)cc1O,4.19,4.10,4.41,3.95,100
COc1cc(-c2cccs2)ccc1C(=O)O,3.60,4.05,3.30,< 3.00,> 234
COc1cc(-c2ccc(C)s2)ccc1C(=O)O,3.59,3.80,3.57,3.26,272
O=C(O)c1ccc(-c2cccs2)c(F)c1,3.60,3.84,3.57,< 3.00,> 222
O=C(O)c1ccc(-c2ccc(Cl)s2)c(F)c1,3.78,3.93,3.69,3.19,297
O=C(O)c1ccc(-c2cc(Cl)sc2Cl)cc1O,3.93,4.01,4.52,4.29,33
O=C(O)c1cc(-c2cccs2)c(Cl)cc1O,4.06,4.47,5.51,4.13,38
Cc1ccc(-c2cc(C(=O)O)c(O)cc2Cl)s1,4.11,4.42,5.17,3.79,87
COc1cc(Cl)c(-c2cccs2)cc1C(=O)O,3.69,4.72,3.68,< 3.00,> 268
COc1ccc(C(=O)O)cc1-c1cccs1,< 3.30,4.76,3.72,< 3.00,> 234
COc1ccc(C(=O)O)cc1-c1ccc(C)s1,3.33,4.47,3.78,< 3.00,> 248

# The remaining compounds from weak to strong by pIC50 [1], led by results:
pIC50 [1],pIC50 [2],pIC50 [3],pIC50 [4],MIC [4] [µg/mL],SMILES
3.48,3.47,3.60,3.06,306,Cc1ccc(-c2ccc(C(=O)O)cc2F)s1
3.54,4.01,< 3.30,3.08,521,COc1cc(-c2cc(Cl)sc2Cl)ccc1C(=O)O
3.60,3.80,< 3.30,< 3.00,> 204,O=C(O)c1ccc(-c2cccs2)cc1
4.06,4.20,4.14,4.47,28,O=C(O)c1ccc(-c2ccc(Cl)s2)cc1O
4.09,4.04,3.96,4.14,47,Cc1ccc(-c2ccc(C(=O)O)c(O)c2)s1
4.13,4.44,5.31,4.31,30,O=C(O)c1cc(-c2ccc(Cl)s2)c(Cl)cc1O
4.15,4.94,3.97,< 3.00,> 282,COc1cc(Cl)c(-c2ccc(C)s2)cc1C(=O)O
